In patent US9433607B2, “Composition for prevention or treatment of cancer comprising N-methylenenaphtho[2,1-b]furan-2-carbohydrazide derivatives as an active ingredient” (KOREA RESEARCH INSTITUTE OF BIOSCIENCE AND BIOTECHNOLOGY, priority 2012, dated 2016):
One block for each compound: values may come before it.

Legend:
[1] = system: HeLa cell line; experiment: Anti-proliferative activity in HeLa cells (MTT assay); type: cell-based; settings: HeLa cell line; for IC50: Homo sapiens
Method: Particularly, HeLa cell line (ATCC, USA) was treated with the compounds of Table 1 respectively, and then IC50 (the half maximal inhibitory concentration) was investigated (Table 1).
HeLa cells were treated with 100 nM, 250 nM, 500 nM and 1 μM of ethyl(2-methyl-3{(E)-[(naphtho[2,1-b]furan-2-ylcarbonyl)hydrazono]methyl}-1H-indole-1-yl)acetate or DMSO for 4 days. Then, the cell growth was confirmed by MTT assay. All the obtained numbers were calculated by normalizing the value of Day 0. The data presents the mean value obtained from the assay performed in triplicate.
Particularly, HeLa cells were distributed in a 96-well plate at the density of 2×10^3 cells/well. The cells were treated with DMSO or the compound of the present invention, to which MTT reagent was added at the concentration of 10 μl/well. 2 hours later, OD450 was measured, which became the value of Day 0. 4 days later, MTT reagent was added thereto again. 2 hours later, OD450 was measured. The data presents the mean value obtained from the assay performed in triplicate.

[2] = system: K562/ADR; experiment: Cytotoxicity MTT assay, multi-drug resistant K562/ADR; type: cell-based; settings: for IC50: Homo sapiens, 96 h, K562/ADR, MTT, 4 days; for resistance factor (number in the bracket): ratio of IC50 of K562/ADR to IC50 of parent K562
Method: (§1) Particularly, K562, MCF7 (Bio-Evaluation Center, Korea Research Institute of Bioscience and Biotechnology, Korea), and the multi-drug resistant cell lines thereof, K562/ADR and MCF7/ADR (Bio-Evaluation Center, Korea Research Institute of Bioscience and Biotechnology, Korea) were cultured in microtiter plate (1-3×10^3 cells/well). Then, the cells were treated with ethyl(2-methyl-3{(E)-[(naphtho[2,1-b]furan-2-ylcarbonyl)hydrazono]methyl}-1H-indole-1-yl)acetate, doxorubicin, or taxol, followed by culture for 4 days. Cytotoxicity was investigated by MTT assay by the same manner as described in Example <1-2>. IC50 was calculated by long-dose response curve. The data presents the mean value obtained from the assay performed in triplicate (Table 3).
(§2) The resistance factor of the multi-drug resistant cell line indicates the ratio of IC50 of the multi-drug resistant cell line to IC50 of the parent cell line showing no resistance, which was presented as a number in the bracket.

[3] = system: HeLa cells; experiment: Immunofluorescence of intracellular microtubules and chromosomes; type: cell-based; settings: 17 hours, Taxol 100 μM, nocodazole 200 ng/ml, compound 5 μM
Method: To investigate the effect of ethyl(2-methyl-3{(E)-[(naphtho[2,1-b]furan-2-ylcarbonyl)hydrazono]methyl}-1H-indole-1-yl)acetate on intracellular microtubules, HeLa cells were treated with DMSO, Taxol (100 μM), nocodazole (200 ng/ml), or ethyl(2-methyl-3{(E)-[(naphtho[2,1-b]furan-2-ylcarbonyl)hydrazono]methyl}-1H-indole-1-yl)acetate (5 μM) for 17 hours. After fixing the cells, the cells were immuno-stained with Alexa Fluor 488-conjugated anti-tubulin antibody and Hoechst 33342 to confirm α-tubulin and chromosomes.

[4] = system: MCF7/ADR; experiment: Cytotoxicity MTT assay, multi-drug resistant MCF7/ADR; type: cell-based; settings: for IC50: Homo sapiens, NCI/ADR-RES, 96 h, MCF7/ADR, MTT, 4 days; for resistance factor (number in the bracket): ratio of IC50 of MCF7/ADR to IC50 of parent MCF7
Method: as §1, §2

[5] = system: MCF7; experiment: Cytotoxicity MTT assay, MCF7; type: cell-based; settings: Homo sapiens, 96 h, 4 days
Method: as §1

[6] = system: K562; experiment: Cytotoxicity MTT assay, K562; type: cell-based; settings: Homo sapiens, 96 h, 4 days
Method: as §1

[7] = system: FVB/N mouse induced with skin tumor; experiment: DMBA/TPA induced skin tumor model; type: in vivo
Method: In this invention, the male FVB/N mice (6-7 weeks, Jackson Laboratory, USA) were raised under the condition of 12 hr bright lighting/12 hr dim lighting at the temperature of 24±2° C. with the humidity of 50±10% with water and feed provided freely. The care and process of the test animal was reviewed and approved by Institutional Animal Care and Use Committee (IACUC), Korea Research Institute of Bioscience and Biotechnology (KRIBB). DMBA (7,12-dimethylbenz[α]anthracene), TPA (12-O-tetradecanoylphorbol-13-acetate) and cholchicine were purchased from Sigma-Aldrich, and the synthesized ethyl(2-methyl-3{(E)-[(naphtho[2,1-b]furan-2-ylcarbonyl)hydrazono]methyl}-1H-indole-1-yl)acetate was provided from Dr. Thimmegowda.
Particularly, the dorsal skin of the said FVB/N mouse was shaved two days before the experiment. 100 μg of DMBA was added to 0.2 ml of acetone, which was treated to the mouse by single-local administration for 1 week to induce tumor. 5 fig of TPA was added to 0.2 ml of acetone, which was treated to the above mouse induced with tumor […] for 15 weeks to grow the tumor. 500 nM of ethyl(2-methyl-3{(E)-[(naphtho[2,1-b]furan-2-ylcarbonyl)hydrazono]methyl}-1H-indole-1-yl)acetate or cholchicine was dissolved in 0.2 ml of acetone, which was treated to the above mouse locally for 30 minutes each time for 15 weeks. Each group was composed of at least 10 mice and total 4 groups were prepared:
Group 1: DMBA and acetone treated group (negative control)
Group 2: DMBA and TPA treated group (positive control)
Group 3: DMBA/TPA and cholchicine treated group (experimental group 1)
Group 4: DMBA/TPA and ethyl(2-methyl-3{(E)-[(naphtho[2,1-b]furan-2-ylcarbonyl)hydrazono]methyl}-1H-indole-1-yl)acetate treated group (experimental group 2).
In addition, skin tumor such as papilloma was checked every week during the whole period of experiment. The tumor in the size of at least 2 mm was judged as positive. 15 weeks later, the mice were sacrificed with CO2. The skin tumor was extracted for histopathological/biochemical analysis.
The average number and the volume of tumor in each group were calculated.
Each mouse group was treated with different materials by the same manner as described in Example <8-2>, followed by observation for 15 weeks, and then the number of mice having skin tumor was counted. Tumor development rate was presented as %.
The mouse induced with skin tumor by the same manner as described in Example <8-2> was treated with DMBA, and then the induced tumors were observed and weighed for 15 weeks to produce the average weight of tumor.

IC50 [1]: 0.44 µM
Compound: Cc1c(/C=N/NC(=O)c2cc3c(ccc4ccccc43)o2)c2ccccc2n1C [A]
decrease of anti-proliferative activity compared with STK899704 [1]: two times decreased

IC50 [1]: 3.97 µM
Compound: COc1cccc(/C=N/NC(=O)c2cc3c(ccc4ccccc43)o2)c1O [J, (E)-N′-(2-hydroxy-3-methoxybenzylidene)naphtho[2,1-b]furan-2-carbohydrazide]

IC50 [1]: 2.24 µM
Compound: O=C(N/N=C/c1ccc(-c2ccc(Br)cc2)o1)c1cc2c(ccc3ccccc32)o1 [D]

Compound: CC(=O)O[C@H]1C(=O)[C@@]2(C)[C@H]([C@H](OC(=O)c3ccccc3)[C@]3(O)C[C@H](OC(=O)[C@H](O)[C@@H](NC(=O)c4ccccc4)c4ccccc4)C(C)=C1C3(C)C)[C@]1(OC(C)=O)CO[C@@H]1C[C@@H]2O [Taxol]
IC50 [2]: 1820 µM
resistance factor (number in the bracket) [2]: 911
effect on microtubules and chromosomes (immunostaining) [3]: strengthened the polymerization of tubulin so that multi-polar spindle fibers with condensed chromosomes were produced
IC50 [4]: 1620 µM
resistance factor (number in the bracket) [4]: 377
IC50 [5]: 4.3 µM
IC50 [6]: 2 µM

IC50 [1]: 2.61 µM
Compound: O=C(N/N=C/c1ccc(-c2cccc(Cl)c2Cl)o1)c1cc2c(ccc3ccccc32)o1 [E]

Compound: COC(=O)Nc1nc2ccc(C(=O)c3cccs3)cc2[nH]1 [nocodazole, reference compound]
effect on microtubules and chromosomes (immunostaining) [3]: chromosomes were not fully condensed and microtubules were destroyed

Compound: COc1cccc2c1C(=O)c1c(O)c3c(c(O)c1C2=O)C[C@@](O)(C(=O)CO)C[C@@H]3O[C@H]1C[C@H](N)[C@H](O)[C@H](C)O1 [Doxorubicin]
IC50 [2]: 3800 µM
resistance factor (number in the bracket) [2]: 1153
IC50 [4]: 5230 µM
resistance factor (number in the bracket) [4]: 98
IC50 [5]: 53 µM
IC50 [6]: 3.3 µM

IC50 [1]: 5.4 µM
Compound: O=C(N/N=C/c1ccc([N+](=O)[O-])o1)c1cc2c(ccc3ccccc32)o1 [H, (E)-N′-((5-nitrofuran-2-yl)methylene)naphtho[2,1-b]furan-2-carbohydrazide]

IC50 [1]: 1.96 µM
Compound: C=CCn1c(C)c(/C=N/NC(=O)c2cc3c(ccc4ccccc43)o2)c2ccccc21 [B, (E)-N′-((1-allyl-2-methyl-1H-indol-3-yl)methylene)naphtho[2,1-b]furan-2-carbohydrazide]

Compound: COc1cc2c(c(OC)c1OC)-c1ccc(OC)c(=O)cc1[C@@H](NC(C)=O)CC2 [cholchicine, reference compound]
number of skin tumor ([7]; 500 nM in 0.2 ml acetone, local, 15 weeks): significantly reduced
weight of tumor compared with positive control ([7]; 15 weeks): significantly lighter
average volume of skin tumor reduced compared with positive control ([7]; 15 weeks, 500 nM local): 31.5%
decrease of average number of skin tumor compared with positive control ([7]; 15 weeks, 500 nM local): 2.86 times
week to which tumor formation was postponed ([7]; tumor of at least 2 mm, positive control from 8th week): 9 week

IC50 [1]: 3.11 µM
Compound: Cc1ccc(-c2ccc(/C=N/NC(=O)c3cc4c(ccc5ccccc54)o3)o2)cc1[N+](=O)[O-] [G, (E)-N′-((5-(4-methyl-3-nitrophenyl)furan-2-yl)methylene)naphtho[2,1-b]furan-2-carbohydrazide]

IC50 [1]: 2.88 µM
Compound: O=C(N/N=C/c1ccc(-c2ccc([N+](=O)[O-])cc2)o1)c1cc2c(ccc3ccccc32)o1 [Compound F, (E)-N′-((5-(4-nitrophenyl)furan-2-yl)methylene)naphtho[2,1-b]furan-2-carbohydrazide]

IC50 [1]: 2.61 µM
Compound: Cc1c(/C=N/NC(=O)c2cc3c(ccc4ccccc43)o2)c2ccccc2n1CC#N [C, (E)-N′-((1-(cyanomethyl)-2-methyl-1H-indol-3-yl)methylene)naphtho[2,1-b]furan-2-carbohydrazide]

IC50 [1]: 3.67 µM
Compound: O=C(N/N=C/c1ccc(OCc2ccccc2)cc1)c1cc2c(ccc3ccccc32)o1 [I, (E)-N′-(4-(benzyloxy)benzylidene)naphtho[2,1-b]furan-2-carbohydrazide]
